PubChem BioAssay (NCI)
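Exposure lasted 48 hours, with cells grown in 96-well plates and compounds tested at five concentrations. The concentration for full growth arrest is given as TGI.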

Experiments:
Assay in all cases: NCI tumour cell line growth inhibition, 48 h
[1] = tested on: MCF7 breast
[2] = tested on: SK-OV-3 ovarian
[3] = tested on: HL-60(TB) leukemia
[4] = tested on: SW-620 colon
[5] = tested on: LOX IMVI melanoma
[6] = tested on: MDA-N
[7] = tested on: A498 renal
[8] = tested on: EKVX NSCLC
[9] = tested on: M14 melanoma
[10] = tested on: SR leukemia
[11] = tested on: NCI-H23 lung
[12] = tested on: 786-0 renal
[13] = tested on: COLO 205 colon
[14] = tested on: IGROV1 ovarian
[15] = tested on: MALME-3M melanoma
[16] = tested on: HS 578T breast
[17] = tested on: SK-MEL-5 melanoma
[18] = tested on: UACC-62 melanoma
[19] = tested on: T-47D breast
[20] = tested on: OVCAR-8 ovarian
[21] = tested on: HCT-116 colon
[22] = tested on: A549 NSCLC
[23] = tested on: PC-3 prostate
[24] = tested on: UO-31 renal
[25] = tested on: NCI-H460 lung
[26] = tested on: RPMI-8226 leukemia
[27] = tested on: KM12 colon
[28] = tested on: ACHN renal
[29] = tested on: SF-268 CNS
[30] = tested on: MDA-MB-435
[31] = tested on: CAKI-1 renal
[32] = tested on: SK-MEL-28 melanoma
[33] = tested on: HT29 colon
[34] = tested on: MOLT-4 leukemia
[35] = tested on: SF-295 CNS
[36] = tested on: HCC-2998 colon
[37] = tested on: SNB-75 CNS
[38] = tested on: NCI-H522 lung
[39] = tested on: NCI-H226 lung
[40] = tested on: MDA-MB-231 breast
[41] = tested on: SNB-19 CNS
[42] = tested on: UACC-257 melanoma
[43] = tested on: TK-10 renal
[44] = tested on: SF-539 CNS
[45] = tested on: CCRF-CEM leukemia
[46] = tested on: K-562 leukemia
[47] = tested on: DU-145 prostate
[48] = tested on: BT-549 breast
[49] = tested on: HCT-15 colon
[50] = tested on: SN12C renal
[51] = tested on: HOP-62 NSCLC
[52] = tested on: OVCAR-4 ovarian
[53] = tested on: U251 CNS
[54] = tested on: SK-MEL-2 melanoma
[55] = tested on: RXF 393 renal
[56] = tested on: OVCAR-5 ovarian
[57] = tested on: NCI/ADR-RES ovarian
[58] = tested on: OVCAR-3 ovarian
[59] = tested on: HOP-92 NSCLC

Measured: TGI

COc1cc(C2SC(N)=Nc3c2c(C)nn3C(=O)Cc2ccccc2)ccc1O (centres undefined)
75.2 µM: [37]
not listed: [52] | [53] | [54] | [55] | [56] | [57] | [58] | [59]
> 100 µM: all other assays above

CC1(CC(=O)OC(C#C[Si](C)(C)C)Cc2ccccc2)OCCO1 (centres undefined)
not listed: [10] | [25] | [26] | [36] | [46] | [58] | [59]
> 100 µM: all other assays above

C[C@]12CCC(=O)C=C1CC[C@@H]1[C@@H]2CC[C@]2(C)C(=O)/C(=C\c3ccccc3)C[C@@H]12
> 48.7 µM: [21]
> 66.8 µM: [12]
35.9 µM: [36]
> 66.2 µM: [9] | [18]
46.1 µM: [54]
> 66 µM: [25]
> 64.3 µM: [27]
> 56.9 µM: [4]
> 80.3 µM: [35]
> 26.1 µM: [26]
42.4 µM: [7]
23.3 µM: [45]
> 70.6 µM: [24]
> 86.8 µM: [59]
> 48.6 µM: [17]
> 50.5 µM: [3]
31.9 µM: [50]
55.9 µM: [13]
62.5 µM: [11]
> 57 µM: [34]
> 69.4 µM: [53]
> 49.2 µM: [10]
72.6 µM: [48]
> 81.4 µM: [32]
> 73.7 µM: [55]
> 51.5 µM: [5]
> 68 µM: [22]
72.7 µM: [57]
> 56.1 µM: [1]
> 86.7 µM: [19]
> 77.1 µM: [58]
73.9 µM: [15]
> 63.6 µM: [44]
> 53.3 µM: [23]
48 µM: [6]
33.5 µM: [39]
not listed: [16] | [29] | [38]
> 100 µM: all other assays above
